Results published in patent US20080293587A1, “Method of Screening a Biological Target for Weak Interactions Using Weak Affinity Chromatography” (Transientic Interactions AB, priority 2005, published 2008).

Biological target: bovine serum albumin (BSA) (Bos taurus, UniProt P02769)
Conditions: bupivacain 1 mM; for retardation in zonal weak affinity chromatography in a well (peak apex): immobilized BSA, mobile phase 0.05 M sodium phosphate buffer pH 7.0, 20° C., UV 230 nm, propranolol 0.25 mM, sodium azide 0.5 mM
Method: 200 mg of reference gel (diol-silica) and assay gel (BSA-diol-silica) were suspended in 1 ml methanol and packed into each well in a 96-well filtering system (Captiva® 96-well 10μ glassfiber filter plate from Ansys Technologies (Company), see FIG. 1) using vacuum applied to the wells. The gel in the wells was first washed with 5 ml MeOH and then with 5 ml 0.1 M sodium phosphate buffer pH 7.0. Filter discs were placed on top of the gel material in each well.
Wells containing gel materials were washed carefully with 0.05 M sodium phosphate buffer pH 7.0 using vacuum collar to remove non-bound BSA, contaminants and entrapped air. The excess of buffer was gently removed from the surface of the wells using pipette and 10 μl of test substances were injected centrally in each wells which were then flushed with mobile phase (0.05 M sodium phosphate buffer pH 7.0). Vacuum was applied to the collar and the mobile phase was flowed into a 96 well collection plate (Nunclon, Nalgene-Nunc) within 8-10 seconds. Vacuum was then reduced and the collection plate (approximately 0.2 ml in each well) was replaced with a new one. This fraction collection process was repeated with 20-75 plates. During this procedure the wells were eluted with mobile phase continuously. […] The eluates in the plates were transferred carefully by automatic pipettes and weighed to estimate the retention volume. All procedures were performed at room temperature (20° C.). Eluted substances were detected by UV-scans at 230 nm. Chromatograms were obtained by plotting UV absorbance versus fraction volume.

Sequence of bovine serum albumin (BSA) (P02769 25-607): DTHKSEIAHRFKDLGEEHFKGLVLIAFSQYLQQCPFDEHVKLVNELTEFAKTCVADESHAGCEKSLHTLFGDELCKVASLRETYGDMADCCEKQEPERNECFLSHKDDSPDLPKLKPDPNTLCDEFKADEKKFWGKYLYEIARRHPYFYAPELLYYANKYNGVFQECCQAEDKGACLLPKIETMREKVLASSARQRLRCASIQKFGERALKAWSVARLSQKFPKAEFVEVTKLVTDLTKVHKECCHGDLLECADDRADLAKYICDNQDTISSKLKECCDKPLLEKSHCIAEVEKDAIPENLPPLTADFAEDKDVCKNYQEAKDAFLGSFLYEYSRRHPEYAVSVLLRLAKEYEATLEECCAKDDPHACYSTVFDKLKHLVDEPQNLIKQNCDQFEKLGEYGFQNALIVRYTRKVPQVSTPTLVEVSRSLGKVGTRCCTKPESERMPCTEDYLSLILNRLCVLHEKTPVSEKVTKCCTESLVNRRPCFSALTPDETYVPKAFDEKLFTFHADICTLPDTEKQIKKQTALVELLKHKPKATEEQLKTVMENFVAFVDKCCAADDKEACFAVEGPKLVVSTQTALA

well-to-well reproducibility of retardation in zonal weak affinity chromatography (three different wells, chromatography repeated once in each well) | retardation in zonal weak affinity chromatography in a well (peak apex) | Structure (SMILES)
retarded | retarded | CCCCN1CCCCC1C(=O)Nc1c(C)cccc1C (stereo not drawn) [Bupivacain]
– | retarded | CC(C)NCC(O)COc1cccc2ccccc12 (stereo not drawn) [propranolol]
